The subject of one data set is Salmonidae. Description: Binding affinity to salmon sperm DNA in 10 mM phosphate buffer assessed as change in melting temperature at 15 uM by thermal denaturation assay.
A further data set relates to L6. Description: Cytotoxicity against rat L6 cells after 70 hrs by resazurin reduction assay. Type of data set: cell-based. Conditions: L6, 70 h. A general note: Alamar Blue is a resazurin reagent that responds to reducing activity.
The nature of data set [1]: Selectivity index, ratio of IC50 for rat L6 cells to IC50 for Plasmodium falciparum NF54. Type of data set: toxicity, cell-based. Conditions: L6 cells versus Plasmodium falciparum NF54, read-out: Ratio IC50.
Another data set has as its system Plasmodium falciparum. Put plainly: Antimalarial activity against erythrocytic stage of Plasmodium falciparum NF54 assessed as incorporation of [3H]hypoxanthine after 48 hrs by scintillation counting analysis. Type of data set: functional, organism-based.
Data set [2] is described as follows: Selectivity index, ratio of IC50 for rat L6 cells to IC50 for Trypanosoma brucei rhodesiense STIB900. Type of data set: toxicity, cell-based. Conditions: L6 cells versus Trypanosoma brucei rhodesiense STIB900, read-out: Ratio IC50.
In data set [3] the test system is Trypanosoma brucei rhodesiense. Description: Antitrypanosomal activity against Trypanosoma brucei rhodesiense STIB900 after 70 hrs by resazurin reduction assay. Conditions: STIB900, 70 h. Type of data set: functional, organism-based.
The nature of data set [4]: Binding affinity to poly(dA-dT) DNA (unknown origin) in Tris-Hcl buffer assessed as change in melting temperature.
In data set [5] the test system is DNA. Description: Binding affinity to calf thymus DNA in MES buffer assessed as change in melting temperature. Type of data set: nucleic-acid assay. Conditions: Bos taurus.
Another data set deals with unidentified. Put plainly: Binding affinity to poly(dA-dT) DNA (unknown origin) in PIPES buffer assessed as change in melting temperature.
Data set [6] relates to DNA. Description: Binding affinity to calf thymus DNA in Tris-Hcl buffer assessed as change in melting temperature. Type of data set: nucleic-acid assay. Conditions: Bos taurus.

Usually ΔTm stands for the change in melting temperature against a reference sample. As a reminder, the IC50 is the concentration needed to halve the response being measured.

Take `N=C(N)Nc1ccc(Nc2ccc(NC(=O)CCCCCCCN)cc2)cc1`: in the data set on Salmonidae, the ΔTm is 2 °C.

As to `N=C(N)Nc1ccc(Oc2ccc(NC(=O)CCCCN)cc2)cc1`, the figures for the IC50 (in the data set with L6; with Plasmodium falciparum; in data set [3]) were 33.5 µM, 0.106 µM and 13.1 µM, respectively. Also, the values for the selectivity ratio in [1] and in [2] were 316 and 3, respectively. In addition, the ΔTm in the data set on Salmonidae amounted to 6 °C.

Consider `N=C(N)Nc1ccc(Oc2ccc(N)cc2)cc1`, for which the ΔTm with Salmonidae was 2 °C.

For the molecule `N=C(N)Nc1ccc(CCc2ccc(N)cc2)cc1`, the ΔTm in the data set on Salmonidae turned out to be 0.1 °C.

Consider `N=C(N)Nc1ccc(Cc2ccc(NC(=O)CCCCCCCN)cc2)cc1`, for which, in the data set with Salmonidae, the ΔTm amounted to 0.1 °C.

Turning to `N=C(N)Nc1ccc(CCc2ccc(NC(=O)CCCCCCCCCCCN)cc2)cc1`, the ΔTm in the data set with Salmonidae was 1.1 °C.

Regarding `N=C(N)Nc1ccc(C(=O)c2ccc(NC(=O)CCCN)cc2)cc1`, in the data set with Salmonidae, the ΔTm was determined as 5.1 °C.

As to `N=C(N)Nc1ccc(Nc2ccc(NC(=O)CCCCN)cc2)cc1`, the IC50 is 223 µM with L6, 1.46 µM with Plasmodium falciparum and 57.7 µM in data set [3]. For the same molecule, the selectivity ratio is 153 in data set [1] and 4 in [2]. Moreover, in the data set on Salmonidae, the ΔTm amounted to 6.1 °C.

In the case of `N=C(N)Nc1ccc(Oc2ccc(NC(=O)CCCN)cc2)cc1`, the IC50 stood at 173 µM in the data set with L6 and 0.88 µM in the data set on Plasmodium falciparum. Further, the selectivity ratio in data set [1] was 197. The ΔTm in the data set on Salmonidae was determined as 1.2 °C.

On to `N=C(N)Nc1ccc(Cc2ccc(NC(=O)CCCCCCCCCCN)cc2)cc1`, for which the IC50 with L6 turned out to be 30.3 µM; with Plasmodium falciparum it was 2.02 µM. The selectivity ratio in data set [1] came out at 15. In the data set with Salmonidae, the ΔTm amounted to 0 °C.

Consider `N=C(N)Nc1ccc(CCc2ccc(NC(=O)CCCCCCCCCCN)cc2)cc1`, for which the IC50 with L6 was found to be 70.6 µM; in the data set with Plasmodium falciparum, 5.79 µM. Moreover, the selectivity ratio in [1] is 12. Besides, the ΔTm in the data set on Salmonidae came out at 1.1 °C.

For `N=C(N)Nc1ccc(Oc2ccc(NC(=O)CCCCCCCN)cc2)cc1`, the IC50 turned out to be 136 µM in the data set with L6, 0.149 µM in the data set with Plasmodium falciparum and 31.9 µM in data set [3]. Further, the selectivity ratio in data set [1] was found to be 913; in [2], 4. The ΔTm with Salmonidae was 2.1 °C.

Consider `N=C(N)Nc1ccc(CCc2ccc(NC(=O)CCCN)cc2)cc1`, for which the IC50 with L6 is 133 µM; with Plasmodium falciparum, 1.14 µM; in [3] it was 13.3 µM. The selectivity ratio in [1] was determined as 116; in [2], 10. Besides, in the data set on Salmonidae, the ΔTm came out at 5 °C.

For the molecule `Nc1nc(N)nc(Nc2ccc([As]3SCC(CO)S3)cc2)n1` (configuration not stated) [MELARSOPROL], inhibition in data set [3] was half-maximal at 0.0055 µM (IC50).

As to `N=C(N)Nc1ccc(C(=O)c2ccc(NC(=O)CCCCCCCCCCCN)cc2)cc1`, the IC50 worked out at 10.6 µM with L6 and 1.98 µM in the data set on Plasmodium falciparum. Besides, the selectivity ratio in data set [1] worked out at 5. Moreover, in the data set on Salmonidae, the ΔTm came out at 2.1 °C.

Take `N=C(N)Nc1ccc(Nc2ccc(NC(=O)CCCCCCCCCCN)cc2)cc1`: the IC50 with L6 was determined as 157 µM; with Plasmodium falciparum, 3.79 µM; in [3], 85.4 µM. Also, the selectivity ratio worked out at 41 in [1] and 2 in data set [2]. Also, the ΔTm with Salmonidae was 3.1 °C.

For the molecule `N=C(N)Nc1ccc(Nc2ccc(NC(=O)CCCN)cc2)cc1`, the IC50 in the data set on L6 amounted to 127 µM; with Plasmodium falciparum it was 1.2 µM. The selectivity ratio in data set [1] amounted to 106. Moreover, the ΔTm with Salmonidae turned out to be 1 °C.

Consider `N=C(N)Nc1ccc(CCc2ccc(NC(=O)CCCCCCCN)cc2)cc1`, for which the ΔTm with Salmonidae turned out to be 2 °C.

For `N=C(N)Nc1ccc(C(=O)c2ccc(NC(=O)CCCCN)cc2)cc1`, the IC50 was determined as 140 µM in the data set with L6, 2.55 µM in the data set with Plasmodium falciparum and 121 µM in [3]. The selectivity ratio in data set [1] was 55; in [2], 1. In addition, the ΔTm with Salmonidae stood at 5.2 °C.

As to `N=C(N)Nc1ccc(C(=O)c2ccc(NC(=N)N)cc2)cc1`, the thermal shift (ΔTm) in the data set on Salmonidae worked out at 4.2 °C.

With `N=C(N)Nc1ccc(Nc2ccc(N)cc2)cc1`, the ΔTm in the data set with Salmonidae is 2.1 °C.

As for `N=C(N)Nc1ccc(CCc2ccc(NC(=O)CCCCN)cc2)cc1`, the IC50 with L6 amounted to 109 µM; in the data set with Plasmodium falciparum, 1.06 µM; in data set [3] it was 20.2 µM. For the same molecule, the selectivity ratio in data set [1] was determined as 103; in data set [2], 5. Also, in the data set on Salmonidae, the ΔTm was determined as 5.1 °C.

Take `N=C(N)Nc1ccc(Cc2ccc(NC(=O)CCCCCCCCCCCN)cc2)cc1`: the IC50 in the data set on L6 worked out at 23.8 µM; with Plasmodium falciparum, 2.32 µM. The selectivity ratio in [1] was found to be 10. The ΔTm in the data set with Salmonidae is 0.1 °C.

Consider `N=C(N)Nc1ccc(Cc2ccc(NC(=O)CCCCN)cc2)cc1`, for which the values for the IC50 in the data set on L6 and with Plasmodium falciparum were 105 µM and 0.589 µM, respectively. Besides, the selectivity ratio in [1] stood at 179. Besides, the ΔTm in the data set on Salmonidae amounted to 4 °C.

Take `N=C(N)Nc1ccc(C(=O)c2ccc(NC(=O)CCCCCCCCCCN)cc2)cc1`: in the data set on Salmonidae, the ΔTm was 2 °C.

Regarding `N=C(N)Nc1ccc(C(=O)c2ccc(N)cc2)cc1`, in the data set on Salmonidae, the ΔTm was found to be 0 °C.

Take `N=C(N)Nc1ccc(Nc2ccc(NC(=N)N)cc2)cc1`: in the data set with Salmonidae, the ΔTm stood at 8 °C.

Take `N=C(N)Nc1ccc(Cc2ccc(NC(=N)N)cc2)cc1`: the ΔTm with Salmonidae was found to be 8.1 °C.

Take `N=C(N)Nc1ccc(Cc2ccc(NC(=O)CCCN)cc2)cc1`: the IC50 with L6 came to 207 µM; with Plasmodium falciparum it was 2.62 µM. The selectivity ratio in data set [1] came to 79. Further, the ΔTm in the data set on Salmonidae stood at 1 °C.

As for `N=C(N)Nc1ccc(Oc2ccc(NC(=O)CCCCCCCCCCN)cc2)cc1`, the figures for the IC50 in the data set with L6 and in the data set with Plasmodium falciparum were 62.3 µM and 1.41 µM, respectively. In addition, the selectivity ratio in data set [1] was 44. Moreover, the ΔTm with Salmonidae was 2 °C.

`N=C(N)c1ccc(OCCCCCOc2ccc(C(=N)N)cc2)cc1` [PENTAMIDINE]: the ΔTm came out at 11.1 °C in data set [4], 10.6 °C in the data set with DNA [5], 12.8 °C in the data set with unidentified and 20.6 °C in the data set on DNA [6]. Moreover, the IC50 in the data set on L6 was 1.51 µM; in the data set with Plasmodium falciparum, 0.027 µM; in [3], 0.002 µM. Besides, the results for the selectivity ratio in data set [1] and in data set [2] were 56 and 755, respectively.

For `N=C(N)Nc1ccc(Cc2ccc(N)cc2)cc1`, the ΔTm with Salmonidae stood at 3 °C.

For the molecule `N=C(N)Nc1ccc(Oc2ccc(NC(=O)CCCCCCCCCCCN)cc2)cc1`, the IC50 in the data set on L6 came out at 22.4 µM; in the data set with Plasmodium falciparum it was 1.71 µM. Also, the selectivity ratio in [1] worked out at 13. For the same molecule, the ΔTm with Salmonidae turned out to be 2 °C.

Take `N=C(N)Nc1ccc(Nc2ccc(NC(=O)CCCCCCCCCCCN)cc2)cc1`: the IC50 in the data set on L6 is 11.9 µM; in the data set on Plasmodium falciparum it was 2.71 µM; in data set [3] it was 4.06 µM. Moreover, the selectivity ratio in [1] turned out to be 4; in [2], 3. Further, the ΔTm with Salmonidae came to 5 °C.

For the origin of these results see ChEMBL document CHEMBL2311357, “Aminoalkyl derivatives of guanidine diaromatic minor groove binders with antiprotozoal activity” (J Med Chem, 2013).
